The source of these data is US5166198A, “Antiviral phosphonylalkoxy purines” (Beecham p.l.c., priority 1989, dated 1992).

What all share (format): cell-based
Assay [1] deals with herpes simplex virus 1 (HSV-1; strain HFEM). Put plainly: Plaque Reduction Test for Herpes Simplex Virus 1 (in Vero cells). The following applies: Human alphaherpesvirus 1, read-out: IC50 Herpes Simplex virus Type 1. How it is done: (§1) 1. Plaque Reduction Test for Herpes Simplex Viruses 1 and 2.
(§2) Cells (Vero or MRC-5) were grown to confluence in 24 well multi-dishes (well diameter=1.5 cm). The drained cell monolayers were each infected with approximately 50 infectious particles of herpes simplex virus 1 (HSV-1; strain HFEM) or herpes simplex virus 2 (HSV-2; strain MS) in 100 μl of phosphate-buffered saline. The virus was adsorbed for 1 hour at room temperature. After adsorption, residual inoculum was removed from each well and replaced with 0.5 ml of Eagle's MEM containing 5% newborn calf serum and 0.9% agarose (A37). Once the agarose had set, dilutions of the test compound, which had been prepared in Eagle's MEM (containing 5% newborn calf serum), were added, each well receiving 0.5 ml of liquid overlay. The test compound was diluted to give the following series of concentrations: 200, 60, 20, 6 . . . 0.06 μg/ml; final concentrations in the assay ranged, therefore, between 100 μg/ml and 0.03 μg/ml. The infected cultures were incubated at 37° C. in a humidified atmosphere of 5% CO2 until plaques were clearly visible (2 or 3 days for Vero cells, usually 1 day for MRC-5 cells).
(§3) Cultures from 1 and 2 were fixed in formal saline, the agarose overlays were carefully washed off, and then the cell monolayers were stained with carbol fuchsin. A stereo microscope was used to count plaques. The IC50 (concentration of drug which inhibits the number of plaques formed by 50% relative to the number of plaques observed in virus control monolayers) of the test compound was calculated. In addition, the monolayers were examined for evidence of drug-induced cytotoxicity; the minimum concentration at which cytotoxicity occurs was recorded.
(Plaques are areas of infected cells; plaque reduction assays count them against a control.)

For assay [2], the system named is herpes simplex virus 2 (HSV-2; strain MS). As to the kind of experiment: Plaque Reduction Test for Herpes Simplex Virus 2 (in MRC-5 cells). As to conditions: Human alphaherpesvirus 2, MRC5; MS strain in MRC-5 cells; read-out: IC50 Herpes Simplex virus Type 2. The method, then:
as §1, §2, §3

The subject of assay [3] is varicella zoster virus (VZV; Ellen strain). Put plainly: Plaque Reduction Test for Varicella Zoster-Virus (in MRC-5 cells). As to conditions: Human alphaherpesvirus 3, MRC5; Ellen strain in MRC-5 cells. The method, then:
2. Plaque Reduction Test for Varicella Zoster-Virus
as §2, with “MRC-5 cells” for “Cells (Vero or MRC-5)”, “varicella zoster” for “herpes simplex”, “(VZV; Ellen strain)” for “1 (HSV-1; strain HFEM) or herpes simplex virus 2 (HSV-2; strain MS)”, “heat-inactivated foetal” for “newborn”, “(5” for “(2”, “6 days).” for “3 days for Vero cells, usually 1 day for MRC-5 cells).”
as §3

The test system of assay [4] is visna virus (strain K184). As to the kind of experiment: CPE Inhibition Test (Established Monolayer) for Lentiviruses (in SCP cells). The following applies: Visna-maedi virus, read-out: MIC Visna Virus (minimum concentration giving complete protection of the cell monolayers). The method, then: 3. CPE Inhibition Test (Established Monolayer) for Lentiviruses
3×10^4 sheep choroid plexus (SCP) cells were plated into individual wells of a 96 well microtitre plate in 100 μl of Eagle's MEM with Hanks' salts containing 10% heat inactivated foetal calf serum (FCS). When monolayers had become established (after 1 or 2 days growth) they were washed with 200 μl of maintenance medium (Eagle's MEM with Hanks' salts containing 0.5% FCS) and infected with 100 μl of visna virus (strain K184) in maintenance medium (30 TCID50 /ml). Test samples were diluted with maintenance medium in further 96 well microtitre plates over the range 200-0.06 μg/ml by 3-fold dilution steps. 100 μl of the diluted samples was then transferred directly onto virus-infected monolayers (final concentration range therefore […]) and incubated at in a humidified atmosphere containing 5% CO2 until virus-induced CPE was maximal in the untreated virus-infected controls (usually 12-14 days). The plates were fixed with formal saline and stained with crystal violet. Virus-induced CPE was then scored microscopically and the minimum concentration of sample giving complete protection of the cell monolayers (MIC) determined.

In brackets after ≈: the same amount, converted by molar mass.

For the compound `Nc1nc2c(ncn2OCCCP(=O)(O)O)c(=O)[nH]1` [Example 1, 9-(3-Phosphonopropoxy)guanine], the results for the IC50 in assay [1], in assay [2] and in assay [3] were over 100 µg/mL, over 100 µg/mL and 73 µg/mL (≈ 252 µM), respectively. For the same compound, the MIC in assay [4] came out at 3 µg/mL (≈ 10.4 µM).

`Nc1nc2c(ncn2OCCCCP(=O)(O)O)c(=O)[nH]1` [Example 3, 9-(4-Phosphonobutoxy)guanine]: the IC50 (usually the concentration at which inhibition is half-maximal) in assay [1] is 62 µg/mL (≈ 204 µM); in assay [2], 23 µg/mL (≈ 75.9 µM); in assay [3], 6 µg/mL (≈ 19.8 µM). Further, in assay [4], the MIC is 1 µg/mL (≈ 3.3 µM).

As to `Nc1nc(N)c2ncn(OCCCCP(=O)(O)O)c2n1` [Example 5, 2,6-Diamino-9-(4-phosphonobutoxy)purine], the IC50 in assay [1] is over 100 µg/mL; in assay [2], over 100 µg/mL; in assay [3], 17 µg/mL (≈ 56.2 µM). For the same compound, the MIC in assay [4] was determined as 10 µg/mL (≈ 33.1 µM).

Consider `Nc1ncnc2c1ncn2OCCCCP(=O)(O)O` [Example 7, 9-(4-Phosphonobutoxy)adenine], for which the IC50 in assay [1], in assay [2] and in assay [3] was over 100 µg/mL throughout. For the same compound, in assay [4], the MIC is 100 µg/mL (≈ 348 µM).

`Nc1ncnc2c1ncn2OC(CO)CCP(=O)(O)O` (stereo not shown) [Example 11]: the half-inhibitory concentration (IC50) in assay [1], in assay [2] and in assay [3] was over 100 µg/mL throughout. Besides, in assay [4], the MIC worked out at 30 µg/mL (≈ 98.9 µM).

Regarding `Nc1nc2c(ncn2OCC(O)CCP(=O)(O)O)c(=O)[nH]1` (stereo not shown) [Example 13, 9-(2-Hydroxy-4-phosphonobutoxy)guanine], the half-maximal inhibitory concentration (IC50) in assay [1] is over 100 µg/mL; in assay [2], over 100 µg/mL; in assay [3], 29 µg/mL (≈ 90.8 µM). Also, the MIC in assay [4] was 10 µg/mL (≈ 31.3 µM).

As for `Nc1ncnc2c1ncn2OCC(O)CCP(=O)(O)O` (stereo not shown) [Example 15, 9-(2-Hydroxy-4-phosphonobutoxy)adenine], the 50% inhibitory concentration (IC50) in assay [1], in assay [2] and in assay [3] was over 100 µg/mL in each case. Further, the MIC in assay [4] was 100 µg/mL (≈ 330 µM).

For the compound `Nc1nc2c(ncn2OC(CO)CCP(=O)(O)O)c(=O)[nH]1` (stereo not shown) [Example 16, 9-[1-(Hydroxymethyl)-3-phosphonopropoxy]guanine], the IC50 in assay [1], in assay [2] and in assay [3] was over 100 µg/mL throughout. In assay [4], the MIC was 100 µg/mL (≈ 313 µM).

Regarding `Nc1nc2c(ncn2OCC(CO)CCP(=O)(O)O)c(=O)[nH]1` (stereo not shown) [Example 18, 9-[2-(Hydroxymethyl)-4-phosphonobutoxy]guanine], the concentration for half-maximal inhibition (IC50) was over 100 µg/mL in assay [1], over 100 µg/mL in assay [2] and 5 µg/mL (≈ 15 µM) in assay [3]. Besides, the MIC in assay [4] came to 1 µg/mL (≈ 3 µM).

On to `Nc1nc(N)c2ncn(OCC(CO)CCP(=O)(O)O)c2n1` (stereo not shown) [Example 20], for which the IC50 is over 100 µg/mL in assay [1], over 100 µg/mL in assay [2] and 17 µg/mL (≈ 51.2 µM) in assay [3]. The MIC in assay [4] amounted to 10 µg/mL (≈ 30.1 µM).
